The numbers were not newly measured in US20070225210A1, “Therapeutic vaccine compositions for the treatment of type 1 diabetes” (priority 2003, published 2007), which cites them from elsewhere.

The test system of data set [1] is NOD mice.
Data set [2] has as its system insulin. The conditions noted are these: aqueous formulations, administered subcutaneously, NOD mice.
Data set [3] deals with individuals with, or at risk of, type 1 diabetes. The conditions noted are these: repeat administration of low doses.

With “SHLVEALYLVCGERG (Insulin B chain analog) [insulin B chain 9-23, 9-23 fragment of the native insulin B chain]”, in data set [1] (aqueous formulations, administered subcutaneously), the “prevention of the onset of diabetes” value was “can prevent the onset of diabetes”. Moreover, the “protection from the onset of diabetes” value in data set [1] (immunization) was “protect from the onset of diabetes”. Also, the protection against diabetes entry in data set [1] (immunization, administered intranasally) is recorded as “partial protection against diabetes”. Besides, the “immune response to insulin” value in data set [2] is “can induce an immune response to insulin”.
Take “insulin B chain: native human insulin B chain peptide with cysteinyl residues at positions 7 and 19”: in data set [3], the “symptoms of diabetes and insulin-dependency of the patient” value is “can prevent or reduce the symptoms of diabetes and the insulin-dependency of the patient”. In addition, in data set [1] (immunization), the “protection from the onset of diabetes” value is recorded as “protect from the onset of diabetes”.
